# Where a name gives a salt, the structure may show the parent alone.
# Key:
# [1] = test system: mucus production of rabbit; test: Activity on mucus production of rabbit (method of R. Scuri and Coll.); assay type: in vivo; details: for Mucoproduction at hours 0 - 4: mean ± E.S.; for change in vivo at 400 mg/kg / change in vivo at 600 mg/kg: po
# [2] = test system: gastric mucin of the pig; test: "in vitro" viscosity of gastric mucin of the pig (Contraves Rehomat microviscosimeter); details: conc. 2 %; for Viscosity of gastric mucin: 0.1 ml; for Viscosity of gastric mucin, Var. %: vs Mucin + H2O
# Description: The pharmacological activity was measured by studying the effect on the compound (CO/1177) on: (c) "in vitro" viscosity of gastric mucin of the pig by using, for the viscometer measures, a Contraves Rehomat microviscosimeter at 15 automatic scanning speeds.
# [3] = Oryctolagus cuniculus, iv, 10 mg/kg i.v., 0-4 h vs -4-0 h, read-out: Mucoproduction Var. %
# [4] = Oryctolagus cuniculus, 400 mg/kg os, 0-4 h vs -4-0 h, read-out: Mucoproduction Var. %
# [5] = Oryctolagus cuniculus, 600 mg/kg os, 0-4 h vs -4-0 h, read-out: Mucoproduction Var. %
smiles,measurement,setting,value
CC(S)C(=O)NCC(=O)O (racemic) [Mercaptopropionylglycine],Mucoproduction at hours 0 - 4,[1]; 10 mg/kg i.v.,32.121 ± 1.013 mg/h
same,Mucoproduction at hours 0 - 4,[1]; 20 mg/kg i.v.,36.630 ± 1.565 mg/h
same,Mucoproduction at hours 0 - 4,[1]; 400 mg/kg os,32.053 ± 1.292 mg/h
same,Mucoproduction at hours 0 - 4,[1]; 600 mg/kg os,34.432 ± 1.813 mg/h
same,change in vivo at 10 mg/kg,[1]; [3],33.8%
same,change in vivo at 20 mg/kg,"[1]; Oryctolagus cuniculus, iv, 20 mg/kg i.v., 0-4 h vs -4-0 h, read-out: Mucoproduction Var. %",43%
same,change in vivo at 400 mg/kg,[1]; [4],45%
same,change in vivo at 600 mg/kg,[1]; [5],49.9%
N[C@@H](CSCC(=O)O)C(=O)O [S--Carboxymethylcysteine],Mucoproduction at hours 0 - 4,[1]; 400 mg/kg os,35.339 ± 1.376 mg/h
same,Mucoproduction at hours 0 - 4,[1]; 600 mg/kg os,32.120 ± 1.630 mg/h
same,change in vivo at 400 mg/kg,[1]; [4],31.2%
same,change in vivo at 600 mg/kg,[1]; [5],34.2%
"CCCC1SCCN1C(=O)c1ccccc1C(=O)O (centres unmarked) [CO/1226, 2-[(2-propyl)-1,3-thiazolidin-3-yl]-carbonyl-benzoic acid (Na salt)]",Mucoproduction at hours 0 - 4,[1]; 10 mg/kg i.v.,29.730 ± 4.510 mg/h
same,change in vivo at 10 mg/kg,[1]; [3],26.9%
"O=C(O)c1cccnc1C(=O)N1CCSC1 [CO/1242, 2-(1,3-thiazolidin-3-yl)-carbonyl-3-pyridine-carboxylic acid (Na salt)]",Mucoproduction at hours 0 - 4,[1]; 10 mg/kg i.v.,31.030 ± 2.840 mg/h
same,change in vivo at 10 mg/kg,[1]; [3],39%
CN(Cc1cc(Br)cc(Br)c1N)C1CCCCC1 [Bromexine],Mucoproduction at hours 0 - 4,[1]; 400 mg/kg os,27.414 ± 1.071 mg/h
same,Mucoproduction at hours 0 - 4,[1]; 600 mg/kg os,34.440 ± 1.446 mg/h
same,change in vivo at 400 mg/kg,[1]; [4],31.3%
same,change in vivo at 600 mg/kg,[1]; [5],40.6%
"CC(=O)N[C@@H](CS)C(=O)O [N--Acetylcysteine, reference compound]",Mucoproduction at hours 0 - 4,[1]; 5 mg/kg i.v.,29.058 ± 0.946 mg/h
same,Mucoproduction at hours 0 - 4,[1]; 10 mg/kg i.v.,30.988 ± 1.078 mg/h
same,Mucoproduction at hours 0 - 4,[1]; 400 mg/kg os,22.713 ± 0.947 mg/h
same,Mucoproduction at hours 0 - 4,[1]; 600 mg/kg os,32.512 ± 1.365 mg/h
same,change in vivo at 5 mg/kg,"[1]; Oryctolagus cuniculus, iv, 5 mg/kg i.v., 0-4 h vs -4-0 h, read-out: Mucoproduction Var. %",29.2%
same,change in vivo at 10 mg/kg,[1]; [3],49.8%
same,change in vivo at 400 mg/kg,[1]; [4],4.7%
same,change in vivo at 600 mg/kg,[1]; [5],39.4%
same,Viscosity of gastric mucin,[2]; speed 17.4 g/min,25.64 cps
same,Viscosity of gastric mucin,[2]; speed 25 g/min,25.20 cps
same,Viscosity of gastric mucin,[2]; speed 33.6 g/min,24.30 cps
same,Viscosity of gastric mucin,[2]; speed 44.3 g/min,23.32 cps
same,Viscosity of gastric mucin,[2]; speed 56.1 g/min,23.77 cps
same,Viscosity of gastric mucin,[2]; speed 77.9 g/min,20.30 cps
same,Viscosity of gastric mucin,[2]; speed 113.2 g/min,19.41 cps
same,Viscosity of gastric mucin,[2]; speed 152 g/min,17.94 cps
same,Viscosity of gastric mucin,[2]; speed 200 g/min,16.19 cps
same,Viscosity of gastric mucin,[2]; speed 266.8 g/min,14.52 cps
same,Viscosity of gastric mucin,[2]; speed 352 g/min,13.70 cps
same,"Viscosity of gastric mucin, Var. %",[2]; speed 17.4 g/min,-11.9%
same,"Viscosity of gastric mucin, Var. %",[2]; speed 25 g/min,-8.1%
same,"Viscosity of gastric mucin, Var. %",[2]; speed 44.3 g/min,-12.4%
same,"Viscosity of gastric mucin, Var. %",[2]; speed 56.1 g/min,-8.1%
same,"Viscosity of gastric mucin, Var. %",[2]; speed 77.9 g/min,-11.1%
same,"Viscosity of gastric mucin, Var. %",[2]; speed 113.2 g/min,-10.1%
same,"Viscosity of gastric mucin, Var. %",[2]; speed 152 g/min,-8%
same,"Viscosity of gastric mucin, Var. %",[2]; speed 200 g/min,-11.1%
same,"Viscosity of gastric mucin, Var. %",[2]; speed 266.8 g/min,-12.1%
same,"Viscosity of gastric mucin, Var. %",[2]; speed 352 g/min,-8.1%
"CC1=CCC(CC2SCCN2C(=O)c2ccccc2C(=O)[O-])C1(C)C.[Na+] (centres unmarked) [CO/1178, 2-[(2-{2',2',3'-trimethyl-cyclopenten-3'yl}-methyl)-1,3-thiazolidin-3-yl]-carbonyl-benzoic acid, Na salt]",Mucoproduction Var. %,"[1]; 10 mg/kg i.v., 0-4 h vs -4-0 h",+19.9%
same,Mucoproduction at hours 0 - 4,[1]; 10 mg/kg i.v.,26.890 ± 6.210 mg/h
"O=C(O)c1ccccc1C(=O)N1CCSC1c1ccccc1 (centres unmarked) [CO/1220, 2-[(2-phenyl)-1,3-thiazolidin-3-yl]-carbonyl-benzoic acid (Na salt)]",Mucoproduction at hours 0 - 4,[1]; 10 mg/kg i.v.,31.300 ± 2.240 mg/h
same,change in vivo at 10 mg/kg,[1]; [3],43.5%
